Results taken from patent EP0045334A1, “Propranolol antigen conjugates and antibodies and method of using them” (SYVA COMPANY, priority 1980, dated 1982).

What was measured:
[1] = tested on: Antibodies prepared from BSA conjugate according to Example 6; test: Cross-reactivity in homogeneous enzyme immunoassay for propranolol (G6PDH conjugate, change in OD at 340nm); format: binding; details: 100ng/ml propranolol standard
Method: (§1) Antibodies were prepared employing the conjugates of Examples 4 and 6 in accordance with known procedures. The bleeds were harvested and the antibodies isolated according to known techniques.
(§2) The following is the assay procedure employed for the determination of the presence of propranolol.
(§3) In carrying out the propranolol assay, a number of reagent solutions are prepared:
(§4) • 0.055M Tris-HCl • 0.05% Sodium Azide • 0.005% Thimerosal • pH8.1 at room temperature • Assay Buffer • Basic Buffer • 0.5% NaCl • 0.01% Triton X-100 • pH8.1 at room temperature • Substrate/Antibody Diluent • Basic Buffer • 1.0% RSA (Rabbit Serum Albumin) • 0.04M NAD • 0.066M glucose-6-phosphate • pH5.0 at room temperature • Enzyme Diluent • Basic Buffer • 1.0% RSA • 0.9% NaCl • pH 8.1 at room temperature • Antibody-Substrate Reagent A
(§5) Antibody Substrate is used to dilute gamma globulin isolated as above so that ca 70% of the G6PDH conjugate activity is inhibited in the assay solution.
(§6) The enzyme conjugate (e.g., Example 7) is diluted with enzyme diluent to attain the desired maximum rate. This is measured by aspirating into a spectrometer and taking the change in readings at 340nm over a 30 second period after a 15 second delay.
(§7) In carrying out the assay, the assay solution is prepared by combining the following: 50µl of the sample to be assayed, 50 µl of Reagent A, and 50 µl of Reagent B with 750 µl of assay buffer. The mixture is aspirated into a spectrometer and the A OD read at 340nm. The.concentration of propranolol in the sample is read from a standard curve prepared by using standardized solutions and taking readings.
(§8) The drugs listed below were used in preliminary testing for cross-reactivity with propranolol using the assay procedure described above: 4-hydroxypropranolol (4POH), N-desisopropyl-propranolol (DIPP), propranolol glycol (PG), naphthoxylactic acid (NLA), and naphthoxyacetic acid (NAA). All are metabolites of propranolol itself. […] The remainder show cross reactivity as below.

[2] = tested on: Antibodies prepared from BgG conjugate according to Example 4; test: as above; format: binding; details: Lot 2153; 100ng/ml propranolol standard
Method: as §1, §2, §3, §4, §5, §6, §7, §8

Row | Structure (SMILES) | CROSS-REACTIVITY, expressed as the concentration necessary to elevate the signal of a 100ng/ml standard solution by 30% ([1]; Lot 2215) [ng/mL] | CROSS-REACTIVITY, expressed as the concentration necessary to elevate the signal of a 100ng/ml standard solution by 30% ([1]; Lot 2216) [ng/mL] | CROSS-REACTIVITY, expressed as the concentration necessary to elevate the signal of a 100ng/ml standard solution by 30% [2] [ng/mL]
1 | NCC(O)COc1cccc2ccccc12 (stereo not drawn) [DIPP, N-desisopropyl-propranolol] | 22 | 200 | 8
2 | CC(C)NCC(O)COc1ccc(O)c2ccccc12 (stereo not drawn) [Example 4POH, 4-hydroxypropranolol] | >1000 | >1000 | 190
3 | OCC(O)COc1cccc2ccccc12 (stereo not drawn) [PG, propranolol glycol] | 230 | 400 | 84
